Where two headings read alike, the source gives them in different places.
Legend:
HeLa cells = assay: cells; type: cell-based; details: for Hela CellCycMod PI 2N IC50/EC50: assay number 14; for Hela CellCycMod PI 4N IC50/EC50: assay number 16; for Hela CellCycMod PI MI IC50/EC50: assay number 17; for Hela CellCycMod PI Cell Number IC50/EC50: assay number 18
HT-29 = assay: cells; type: cell-based; details: for Basal_Viability ATP HT-29 IC50/EC50: assay number 28
HCT116 = assay: cells; type: cell-based; details: for Basal_Viability ATP HCT116 IC50/EC50: assay number 25
DLD-1 = assay: cells; type: cell-based; details: for Basal_Viability ATP DLD-1 IC50/EC50: assay number 23
[1] = tested on: alkaline phosphatase (ALP) activity in C2C12 cells; type: cell-based; details: for WntCondMedia_Alk Phos C2C12 IC50/EC50: assay number 6
hJAK2 = biological target: T1, hJAK2 (Homo sapiens, UniProt O60674); assay: Cerep LANCE kinase assay hJAK2 (S1 assay 33); type: biochemical; details: for hJAK2 LANCE IC50/EC50: assay number 33
T1 construct: purchased Cerep (LANCE kinase assay platform, contract assay)
T1 sequence (O60674 whole entry): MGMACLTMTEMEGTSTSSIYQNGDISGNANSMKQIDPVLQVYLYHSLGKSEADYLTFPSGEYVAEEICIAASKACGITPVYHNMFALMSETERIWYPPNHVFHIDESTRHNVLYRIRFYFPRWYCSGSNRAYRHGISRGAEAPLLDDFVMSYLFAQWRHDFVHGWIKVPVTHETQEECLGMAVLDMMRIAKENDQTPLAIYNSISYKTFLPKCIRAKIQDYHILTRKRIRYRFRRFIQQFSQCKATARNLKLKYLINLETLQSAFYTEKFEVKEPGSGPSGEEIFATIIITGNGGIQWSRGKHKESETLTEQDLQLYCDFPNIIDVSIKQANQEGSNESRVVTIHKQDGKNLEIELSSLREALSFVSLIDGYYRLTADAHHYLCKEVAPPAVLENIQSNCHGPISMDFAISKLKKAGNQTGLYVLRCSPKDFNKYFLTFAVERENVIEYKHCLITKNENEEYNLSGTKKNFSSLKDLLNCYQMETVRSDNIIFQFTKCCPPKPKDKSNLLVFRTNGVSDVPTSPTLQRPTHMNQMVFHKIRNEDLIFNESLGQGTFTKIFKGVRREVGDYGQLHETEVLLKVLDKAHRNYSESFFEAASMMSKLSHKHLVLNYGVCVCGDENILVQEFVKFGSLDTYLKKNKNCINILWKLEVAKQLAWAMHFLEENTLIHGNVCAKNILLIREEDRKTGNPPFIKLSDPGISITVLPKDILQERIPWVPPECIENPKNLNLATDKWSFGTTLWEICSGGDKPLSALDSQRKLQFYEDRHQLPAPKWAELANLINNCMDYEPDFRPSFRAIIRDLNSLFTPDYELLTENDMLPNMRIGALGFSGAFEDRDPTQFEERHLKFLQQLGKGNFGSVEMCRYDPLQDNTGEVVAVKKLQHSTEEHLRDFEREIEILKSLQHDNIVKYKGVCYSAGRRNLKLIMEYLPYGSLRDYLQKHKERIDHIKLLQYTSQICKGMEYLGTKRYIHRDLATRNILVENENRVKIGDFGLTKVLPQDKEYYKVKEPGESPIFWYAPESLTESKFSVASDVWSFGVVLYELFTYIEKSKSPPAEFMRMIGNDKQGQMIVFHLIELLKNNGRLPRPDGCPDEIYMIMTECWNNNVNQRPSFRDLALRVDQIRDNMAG

hKDR = biological target: T2, hKDR (Homo sapiens, UniProt P35968); assay: Cerep LANCE kinase assay hKDR (S1 assay 32); type: biochemical; details: for hKDR LANCE IC50/EC50: assay number 32
T2 construct: purchased Cerep (LANCE kinase assay platform, contract assay)
T2 sequence (P35968 20-1356): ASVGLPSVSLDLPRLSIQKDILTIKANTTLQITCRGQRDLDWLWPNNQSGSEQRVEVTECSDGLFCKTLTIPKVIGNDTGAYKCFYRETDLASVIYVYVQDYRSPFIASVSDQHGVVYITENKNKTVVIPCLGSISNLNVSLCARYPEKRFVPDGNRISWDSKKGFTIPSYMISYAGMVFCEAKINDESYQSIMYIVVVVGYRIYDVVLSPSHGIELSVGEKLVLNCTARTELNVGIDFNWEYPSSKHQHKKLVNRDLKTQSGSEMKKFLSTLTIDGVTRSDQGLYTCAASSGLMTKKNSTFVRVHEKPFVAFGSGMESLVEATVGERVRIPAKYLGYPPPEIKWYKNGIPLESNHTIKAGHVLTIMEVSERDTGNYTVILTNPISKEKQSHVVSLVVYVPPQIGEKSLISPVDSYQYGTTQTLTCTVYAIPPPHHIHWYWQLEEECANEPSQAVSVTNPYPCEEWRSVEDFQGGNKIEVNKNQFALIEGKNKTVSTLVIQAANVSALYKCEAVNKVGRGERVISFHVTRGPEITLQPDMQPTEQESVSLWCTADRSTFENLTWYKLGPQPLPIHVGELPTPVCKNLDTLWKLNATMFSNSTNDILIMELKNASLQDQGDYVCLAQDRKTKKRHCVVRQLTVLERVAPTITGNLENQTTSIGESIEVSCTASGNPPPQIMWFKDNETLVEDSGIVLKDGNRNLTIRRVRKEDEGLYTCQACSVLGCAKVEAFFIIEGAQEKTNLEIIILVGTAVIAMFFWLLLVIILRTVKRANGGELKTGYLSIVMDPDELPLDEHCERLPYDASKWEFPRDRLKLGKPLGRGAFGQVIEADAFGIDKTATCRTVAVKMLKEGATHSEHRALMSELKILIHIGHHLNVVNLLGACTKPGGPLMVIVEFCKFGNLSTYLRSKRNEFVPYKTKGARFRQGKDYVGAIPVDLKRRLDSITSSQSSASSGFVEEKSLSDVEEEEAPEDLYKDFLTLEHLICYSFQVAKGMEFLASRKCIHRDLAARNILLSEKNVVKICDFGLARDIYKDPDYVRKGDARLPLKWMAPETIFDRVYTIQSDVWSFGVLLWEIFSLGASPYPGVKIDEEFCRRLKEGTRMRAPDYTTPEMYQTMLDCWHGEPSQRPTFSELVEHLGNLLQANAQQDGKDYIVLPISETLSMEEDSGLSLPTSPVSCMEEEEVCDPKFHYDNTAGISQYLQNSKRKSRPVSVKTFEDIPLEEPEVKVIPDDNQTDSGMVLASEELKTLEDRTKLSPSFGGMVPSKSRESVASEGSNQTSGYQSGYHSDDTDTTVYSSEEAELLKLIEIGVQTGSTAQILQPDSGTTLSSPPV

RKO = assay: cells; type: cell-based; details: for Basal_Viability ATP RKO IC50/EC50: assay number 29
[2] = tested on: ECFC/ADSC co-culture cell nuclei number
[3] = tested on: nuclear β-catenin in C2C12 cells; assay: cells; type: cell-based; details: for WntCondMedia_bCatenin C2C12 IC50/EC50: assay number 5
[4] = tested on: HCT116 cells treated with a GSK3β inhibitor; assay: cells; type: cell-based; details: for GSK3b inh pretreated_Viability ATP HCT116 IC50/EC50: assay number 26, GSK3b inhibitor pretreated
SNU-C1 = assay: cells; type: cell-based; details: for Basal_Viability ATP SNU-C1 IC50/EC50: assay number 30
hp70S6K1 (RPS6KB1) = biological target: T3, hp70S6K1 (RPS6KB1) (Homo sapiens, UniProt P23443); assay: Cerep LANCE kinase assay hp70S6K1 (S1 assay 31); type: biochemical; details: for hp70S6K1 LANCE IC50/EC50: assay number 31
T3 construct: purchased Cerep (LANCE kinase assay platform, contract assay)
T3 sequence (P23443 whole entry): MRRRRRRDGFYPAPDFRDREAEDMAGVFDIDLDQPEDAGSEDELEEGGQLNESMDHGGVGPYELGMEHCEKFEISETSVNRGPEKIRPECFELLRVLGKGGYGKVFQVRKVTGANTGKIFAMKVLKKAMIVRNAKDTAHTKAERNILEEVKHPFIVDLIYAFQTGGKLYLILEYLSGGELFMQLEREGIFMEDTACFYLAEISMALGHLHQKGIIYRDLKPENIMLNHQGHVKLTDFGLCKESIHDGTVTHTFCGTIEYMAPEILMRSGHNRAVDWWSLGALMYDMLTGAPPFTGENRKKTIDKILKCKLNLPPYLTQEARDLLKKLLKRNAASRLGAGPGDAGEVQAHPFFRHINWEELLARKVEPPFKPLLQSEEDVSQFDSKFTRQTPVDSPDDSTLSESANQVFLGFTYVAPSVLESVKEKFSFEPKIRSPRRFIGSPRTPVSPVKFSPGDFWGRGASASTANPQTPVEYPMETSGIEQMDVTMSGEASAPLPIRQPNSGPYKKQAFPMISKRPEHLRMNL

hGSK3b = biological target: T4, hGSK3b (Homo sapiens, UniProt P49841); assay: Cerep LANCE kinase assay hGSK3b (S1 assay 34); type: biochemical; details: for hGSK3b LANCE IC50/EC50: assay number 34
T4 construct: purchased Cerep (LANCE kinase assay platform, contract assay)
T4 sequence (P49841 whole entry): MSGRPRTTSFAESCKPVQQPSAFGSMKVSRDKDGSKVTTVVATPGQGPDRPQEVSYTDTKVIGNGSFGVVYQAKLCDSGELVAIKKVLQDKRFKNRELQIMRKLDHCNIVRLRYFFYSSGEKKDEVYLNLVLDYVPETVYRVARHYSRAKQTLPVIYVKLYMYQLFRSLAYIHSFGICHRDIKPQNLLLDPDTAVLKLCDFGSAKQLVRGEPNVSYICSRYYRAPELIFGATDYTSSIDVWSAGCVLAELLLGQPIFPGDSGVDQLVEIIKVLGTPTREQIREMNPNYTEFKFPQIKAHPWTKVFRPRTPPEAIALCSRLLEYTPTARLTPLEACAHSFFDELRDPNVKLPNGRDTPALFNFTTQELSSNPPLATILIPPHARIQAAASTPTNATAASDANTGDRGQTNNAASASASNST

[5] = tested on: endothelial tube formation in co-cultures of ECFCs and ADSCs treated with VEGF; assay: cells; type: cell-based, human
hFLT3 = biological target: T5, hFLT3 (Homo sapiens, UniProt P36888); assay: Cerep LANCE kinase assay hFLT3 (S1 assay 35); type: biochemical; details: for hFLT3 LANCE IC50/EC50: assay number 35
T5 construct: purchased Cerep (LANCE kinase assay platform, contract assay)
T5 sequence (P36888 27-993): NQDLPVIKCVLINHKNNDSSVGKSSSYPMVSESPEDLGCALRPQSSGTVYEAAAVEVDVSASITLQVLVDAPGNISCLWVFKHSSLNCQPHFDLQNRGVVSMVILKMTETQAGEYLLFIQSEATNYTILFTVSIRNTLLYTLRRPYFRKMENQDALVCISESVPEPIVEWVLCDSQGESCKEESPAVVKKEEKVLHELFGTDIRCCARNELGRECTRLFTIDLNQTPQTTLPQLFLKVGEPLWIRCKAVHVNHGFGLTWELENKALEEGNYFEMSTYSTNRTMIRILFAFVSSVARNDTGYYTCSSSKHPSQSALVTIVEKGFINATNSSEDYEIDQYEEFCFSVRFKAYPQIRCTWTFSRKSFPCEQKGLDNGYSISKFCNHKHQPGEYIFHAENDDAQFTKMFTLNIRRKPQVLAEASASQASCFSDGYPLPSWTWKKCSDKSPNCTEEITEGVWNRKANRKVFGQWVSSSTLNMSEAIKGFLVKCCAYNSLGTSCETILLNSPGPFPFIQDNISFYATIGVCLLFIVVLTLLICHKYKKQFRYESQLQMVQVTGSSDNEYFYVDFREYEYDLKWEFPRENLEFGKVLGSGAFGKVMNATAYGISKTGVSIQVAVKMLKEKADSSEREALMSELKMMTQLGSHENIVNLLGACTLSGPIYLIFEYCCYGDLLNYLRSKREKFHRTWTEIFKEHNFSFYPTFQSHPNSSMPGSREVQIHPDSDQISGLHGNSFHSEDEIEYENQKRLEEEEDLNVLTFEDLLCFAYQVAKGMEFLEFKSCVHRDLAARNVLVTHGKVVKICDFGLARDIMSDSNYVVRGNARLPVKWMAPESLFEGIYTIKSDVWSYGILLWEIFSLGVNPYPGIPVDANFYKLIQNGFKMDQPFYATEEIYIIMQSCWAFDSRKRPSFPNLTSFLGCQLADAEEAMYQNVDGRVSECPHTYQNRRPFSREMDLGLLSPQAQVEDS

SW480 = assay: cells; type: cell-based
Colo320 = assay: cells; type: cell-based

`CC(C)C[C@H](NC(=O)[C@H](CCc1ccccc1)NC(=O)CN1CCOCC1)C(=O)N[C@@H](Cc1ccccc1)C(=O)N[C@@H](CC(C)C)C(=O)[C@@]1(C)CO1` [NCGC00249613-02] was tested, and the “Hela CellCycMod PI 2N IC50/EC50” value (HeLa cells; 2N) was over 10000 nM, the “Hela CellCycMod PI 4N IC50/EC50” value (HeLa cells; 4N) was over 10000 nM and the “Hela CellCycMod PI MI IC50/EC50” value (HeLa cells; MI) was over 10000 nM. For the same compound, the “Hela CellCycMod PI Cell Number IC50/EC50” value (HeLa cells) was 9.9 nM, the “Basal_Viability ATP HT-29 IC50/EC50” value (HT-29) was 3.18 nM and the “Basal_Viability ATP HCT116 IC50/EC50” value (HCT116; basal) was 5.58 nM. For the same compound, the “Basal_Viability ATP DLD-1 IC50/EC50” value (DLD-1) was 6.96 nM, the “WntCondMedia_Alk Phos C2C12 IC50/EC50” value ([1]; concentration response) was 15.2 nM and the “hJAK2 LANCE IC50/EC50” value (hJAK2) was over 20000 nM. The “hKDR LANCE IC50/EC50” value (hKDR) was over 20000 nM, the “Basal_Viability ATP RKO IC50/EC50” value (RKO) was 3.94 nM and the “VEGF_ADSC\ECFC Angio Hoechst NucArea IC50/EC50” value [2] was 285.2 nM. For the same compound, the “WntCondMedia_bCatenin C2C12 IC50/EC50” value ([3]; concentration response) was 29.2 nM, the “GSK3b inh pretreated_Viability ATP HCT116 IC50/EC50” value [4] was 1.73 nM and the “Basal_Viability ATP SNU-C1 IC50/EC50” value (SNU-C1) was 1.47 nM. For the same compound, the “hp70S6K1 LANCE IC50/EC50” value (hp70S6K1 (RPS6KB1)) was over 20000 nM, the “hGSK3b LANCE IC50/EC50” value (hGSK3b) was over 20000 nM and the “VEGF_ADSC\ECFC Angio CD31 TubeArea IC50/EC50” value [5] was 20.4 nM. For the same compound, the “hFLT3 LANCE IC50/EC50” value (hFLT3) was over 20000 nM.
In the case of `COC(=O)Nc1nc2ccc([S+]([O-])c3ccccc3)cc2[nH]1` (stereo not drawn) [NCGC00095157-05], the “IC50/EC50, Basal_Viability ATP SW480 (assay number 24)” value (SW480; basal) is reported as over 20000 nM, the “IC50/EC50, Hela CellCycMod PI 2N (assay number 14)” value (HeLa cells; 2N) is reported as 326.3 nM and the “IC50/EC50, Hela CellCycMod PI 4N (assay number 16)” value (HeLa cells; 4N) is reported as 331 nM. For the same compound, the “IC50/EC50, Hela CellCycMod PI Cell Number (assay number 18)” value (HeLa cells; Cell Number) was 257.5 nM, the “IC50/EC50, Hela CellCycMod PI MI (assay number 17)” value (HeLa cells; MI) was 241.1 nM and the “IC50/EC50, Basal_Viability ATP HT-29 (assay number 28)” value (HT-29; basal) was over 20000 nM. For the same compound, the “IC50/EC50, Basal_Viability ATP HCT116 (assay number 25)” value (HCT116; basal) was 1 nM, the “IC50/EC50, Basal_Viability ATP DLD-1 (assay number 23)” value (DLD-1; basal) was over 20000 nM and the “IC50/EC50, WntCondMedia_Alk Phos C2C12 (assay number 6)” value ([1]; concentration response) was 559.3 nM. The “IC50/EC50, hJAK2 LANCE (assay number 33)” value (hJAK2) was over 20000 nM, the “IC50/EC50, hKDR LANCE (assay number 32)” value (hKDR) was over 20000 nM and the “IC50/EC50, Basal_Viability ATP RKO (assay number 29)” value (RKO; basal) was 1 nM. The “IC50/EC50, VEGF_ADSC\ECFC Angio Hoechst NucArea (assay number 3)” value [2] was over 10000 nM, the “IC50/EC50, WntCondMedia_bCatenin C2C12 (assay number 5)” value ([3]; concentration response) was 468.3 nM and the “IC50/EC50, GSK3b inh pretreated_Viability ATP HCT116 (assay number 26)” value ([4]; GSK3b inh pretreated) was 1 nM. For the same compound, the “IC50/EC50, hp70S6K1 LANCE (assay number 31)” value (hp70S6K1 (RPS6KB1)) was over 20000 nM, the “IC50/EC50, hGSK3b LANCE (assay number 34)” value (hGSK3b) was over 20000 nM and the “IC50/EC50, VEGF_ADSC\ECFC Angio CD31 TubeArea (assay number 2)” value [5] was 288.4 nM. For the same compound, the “IC50/EC50, hFLT3 LANCE (assay number 35)” value (hFLT3) was over 20000 nM.
For `O=[N+]([O-])c1ccc(O)c2ncccc12` [NCGC00160664-03], the “IC50/EC50, Basal_Viability ATP SW480 (assay number 24)” value (SW480) was 604.6 nM, the “IC50/EC50, Hela CellCycMod PI 2N (assay number 14)” value (HeLa cells) was 1702.8 nM and the “IC50/EC50, Hela CellCycMod PI 4N (assay number 16)” value (HeLa cells) was over 10000 nM. For the same compound, the “IC50/EC50, Hela CellCycMod PI Cell Number (assay number 18)” value (HeLa cells) was 295.2 nM, the “IC50/EC50, Hela CellCycMod PI MI (assay number 17)” value (HeLa cells) was over 10000 nM and the “IC50/EC50, Hela CellCycMod PI S Phase (assay number 15)” value (HeLa cells) was over 10000 nM. For the same compound, the “IC50/EC50, Basal_Viability ATP HT-29 (assay number 28)” value (HT-29) was over 20000 nM, the “IC50/EC50, Basal_Viability ATP HCT116 (assay number 25)” value (HCT116) was 920.6 nM and the “IC50/EC50, Basal_Viability ATP DLD-1 (assay number 23)” value (DLD-1) was 1375 nM. The “IC50/EC50, WntCondMedia_Alk Phos C2C12 (assay number 6)” value [1] was 6361.5 nM, the “IC50/EC50, hJAK2 LANCE (assay number 33)” value (hJAK2) was over 20000 nM and the “IC50/EC50, Basal_Viability ATP Colo 320 (assay number 27)” value (Colo320) was 683.7 nM. The “IC50/EC50, hKDR LANCE (assay number 32)” value (hKDR) was over 20000 nM, the “IC50/EC50, Basal_Viability ATP RKO (assay number 29)” value (RKO) was 710.1 nM and the “IC50/EC50, WntCondMedia_bCatenin C2C12 (assay number 5)” value [3] was over 20000 nM. For the same compound, the “IC50/EC50, GSK3b inh pretreated_Viability ATP HCT116 (assay number 26)” value [4] was 375.1 nM, the “IC50/EC50, Basal_Viability ATP SNU-C1 (assay number 30)” value (SNU-C1) was over 20000 nM and the “IC50/EC50, hp70S6K1 LANCE (assay number 31)” value (hp70S6K1 (RPS6KB1)) was over 20000 nM. The “IC50/EC50, hGSK3b LANCE (assay number 34)” value (hGSK3b) was over 20000 nM and the “IC50/EC50, hFLT3 LANCE (assay number 35)” value (hFLT3) was over 20000 nM.
`COc1cccc2c1C(=O)c1c(O)c3c(c(O)c1C2=O)C[C@@](O)(C(C)=O)C[C@@H]3O[C@H]1C[C@H](N)[C@H](O)[C@H](C)O1` [NCGC00024246-15] was tested, and the “Basal_Viability ATP SW480 IC50/EC50” value (SW480; assay number 24, basal) was 1466 nM, the “Hela CellCycMod PI 2N IC50/EC50” value (HeLa cells; 2N) was 10.16 nM and the “Hela CellCycMod PI S Phase IC50/EC50” value (HeLa cells; assay number 15, S phase) was 9604.6 nM. For the same compound, the “Hela CellCycMod PI 4N IC50/EC50” value (HeLa cells; 4N) was 46.45 nM, the “Hela CellCycMod PI MI IC50/EC50” value (HeLa cells; MI) was 373.8 nM and the “Hela CellCycMod PI Cell Number IC50/EC50” value (HeLa cells) was 8.05 nM. For the same compound, the “Basal_Viability ATP HT-29 IC50/EC50” value (HT-29; basal) was 648.5 nM, the “Basal_Viability ATP HCT116 IC50/EC50” value (HCT116; basal) was 50.86 nM and the “Basal_Viability ATP DLD-1 IC50/EC50” value (DLD-1; basal) was 188 nM. For the same compound, the “WntCondMedia_Alk Phos C2C12 IC50/EC50” value ([1]; concentration response) was 6.1 nM, the “hJAK2 LANCE IC50/EC50” value (hJAK2) was over 20000 nM and the “Basal_Viability ATP Colo 320 IC50/EC50” value (Colo320; assay number 27, basal) was 9247.6 nM. For the same compound, the “hKDR LANCE IC50/EC50” value (hKDR) was over 20000 nM, the “Basal_Viability ATP RKO IC50/EC50” value (RKO; basal) was 118.2 nM and the “WntCondMedia_bCatenin C2C12 IC50/EC50” value ([3]; concentration response) was 369.1 nM. The “GSK3b inh pretreated_Viability ATP HCT116 IC50/EC50” value [4] was 55.38 nM, the “Basal_Viability ATP SNU-C1 IC50/EC50” value (SNU-C1; basal) was 337.6 nM and the “hp70S6K1 LANCE IC50/EC50” value (hp70S6K1 (RPS6KB1)) was over 20000 nM. The “hGSK3b LANCE IC50/EC50” value (hGSK3b) was over 20000 nM and the “hFLT3 LANCE IC50/EC50” value (hFLT3) was over 20000 nM.

— article PMC4503722, “Novel Phenotypic Outcomes Identified for a Public Collection of Approved Drugs from a Publicly Accessible Panel of Assays” (PLoS ONE, 2015)
